Patent publication US9096548B2, “Pyrazine amide compounds” (Boehringer Ingelheim International GmbH, priority 2013, dated 2015)
Counter-ions that a name gives are not always drawn.

The molecules below were run against T1, ENaC (Epithelial Sodium Channel) (Mus musculus, UniProt Q61180+Q9WU38+Q9WU39) (assay: Ussing Chamber assay (short circuit current, amiloride sensitive I_SC)). Conditions: not given.
T1 construct: Mouse kidney M−1 cells were cultivated in DMEM; endogenous in cells; host or cells: Mouse kidney M-1 cells, cultivated with dexamethasone on transwell filters
T1 sequence (Q61180 1-699): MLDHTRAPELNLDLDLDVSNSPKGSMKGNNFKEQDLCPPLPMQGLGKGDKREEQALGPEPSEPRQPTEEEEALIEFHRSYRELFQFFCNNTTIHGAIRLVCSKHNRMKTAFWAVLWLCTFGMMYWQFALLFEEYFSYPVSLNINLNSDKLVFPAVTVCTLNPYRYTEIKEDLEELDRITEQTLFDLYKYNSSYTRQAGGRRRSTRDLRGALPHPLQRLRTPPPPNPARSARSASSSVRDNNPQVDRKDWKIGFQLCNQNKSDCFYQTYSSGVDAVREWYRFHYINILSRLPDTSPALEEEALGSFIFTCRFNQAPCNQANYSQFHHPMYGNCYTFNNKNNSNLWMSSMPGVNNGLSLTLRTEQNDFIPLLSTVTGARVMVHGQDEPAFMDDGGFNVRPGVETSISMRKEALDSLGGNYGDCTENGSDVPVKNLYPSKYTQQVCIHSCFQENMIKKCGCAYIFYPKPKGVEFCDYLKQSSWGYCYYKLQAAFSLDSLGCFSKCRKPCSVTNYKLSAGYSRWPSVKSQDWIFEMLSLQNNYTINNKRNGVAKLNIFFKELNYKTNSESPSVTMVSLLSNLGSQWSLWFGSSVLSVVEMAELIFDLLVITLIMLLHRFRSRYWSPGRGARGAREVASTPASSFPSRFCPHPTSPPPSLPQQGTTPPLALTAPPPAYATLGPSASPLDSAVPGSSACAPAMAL
T1 sequence (Q9WU38 1-638): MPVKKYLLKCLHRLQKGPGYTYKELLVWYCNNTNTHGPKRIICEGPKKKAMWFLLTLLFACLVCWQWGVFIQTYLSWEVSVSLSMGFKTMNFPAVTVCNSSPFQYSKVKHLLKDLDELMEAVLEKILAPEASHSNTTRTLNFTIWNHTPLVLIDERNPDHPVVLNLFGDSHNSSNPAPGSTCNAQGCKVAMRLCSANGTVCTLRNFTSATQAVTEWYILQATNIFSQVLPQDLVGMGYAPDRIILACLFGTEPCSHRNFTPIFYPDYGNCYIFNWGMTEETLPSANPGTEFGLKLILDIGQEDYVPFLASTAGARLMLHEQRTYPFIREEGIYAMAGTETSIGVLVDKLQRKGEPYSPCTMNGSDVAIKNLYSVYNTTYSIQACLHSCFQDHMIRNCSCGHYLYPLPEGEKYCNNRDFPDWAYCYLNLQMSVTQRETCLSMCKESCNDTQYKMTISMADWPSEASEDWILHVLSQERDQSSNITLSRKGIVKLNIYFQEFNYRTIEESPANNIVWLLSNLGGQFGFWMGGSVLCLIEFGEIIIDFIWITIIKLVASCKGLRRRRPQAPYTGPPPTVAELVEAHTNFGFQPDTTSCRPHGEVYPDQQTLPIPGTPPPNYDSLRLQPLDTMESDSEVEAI
T1 sequence (Q9WU39 1-655): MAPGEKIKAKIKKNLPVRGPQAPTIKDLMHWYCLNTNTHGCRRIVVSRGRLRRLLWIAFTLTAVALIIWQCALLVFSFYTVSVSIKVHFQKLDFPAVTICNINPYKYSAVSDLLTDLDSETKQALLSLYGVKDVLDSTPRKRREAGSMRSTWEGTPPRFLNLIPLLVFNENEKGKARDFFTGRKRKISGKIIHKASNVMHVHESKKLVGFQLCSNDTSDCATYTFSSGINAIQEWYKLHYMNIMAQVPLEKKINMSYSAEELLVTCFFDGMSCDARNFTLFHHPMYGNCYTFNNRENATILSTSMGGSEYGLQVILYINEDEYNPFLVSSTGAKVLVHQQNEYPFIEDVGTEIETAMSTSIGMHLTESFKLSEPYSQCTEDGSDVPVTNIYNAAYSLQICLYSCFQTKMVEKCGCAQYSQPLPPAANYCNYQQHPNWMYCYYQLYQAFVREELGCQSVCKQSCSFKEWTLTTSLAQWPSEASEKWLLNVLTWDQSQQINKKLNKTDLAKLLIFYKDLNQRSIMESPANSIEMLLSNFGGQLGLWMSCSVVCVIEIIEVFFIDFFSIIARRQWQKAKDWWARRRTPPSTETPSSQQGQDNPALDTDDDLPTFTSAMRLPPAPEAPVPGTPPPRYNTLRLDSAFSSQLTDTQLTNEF
Type: cell-based
Procedure: The IC50 values of the example compounds given above were determined in the Ussing Chamber assay.
Ussing Chamber: Mouse kidney M−1 cells were cultivated in DMEM containing 5% FCS and 5 μM dexamethasone for 10 to 12 days on polyester transwell filters. Filters were inserted into a teflon-coated well-plate which fit into the ussing chamber system. Prior to measurement the medium of M−1 cells was replaced with Caco-2 transport buffer (Invitrogen, Germany). During measurements, the Ussing chamber temperature was kept at 37° C. Short circuit currents (I_sc) were measured in the voltage-clamp mode with the software package Lab View for data acquisition and analysis. The transepithelial electrical resistance (TEER) was determined by the application of voltage steps of ±5 mV every 5 sec. Compounds were administered at a final concentration of 3 μM or at increasing concentrations (1-3-10 μM) to the apical solution. At the end of each experiment the amiloride sensitive I_SC was measured by adding 3 μM amiloride to the apical compartment. Results are expressed as inhibition in percent of the amiloride effect or as IC50.

Structure (SMILES) | IC50 [µM]
Nc1nc(N)c(C(=O)NC2CCC[N+](CCCc3ccc(O)cc3)(CCCc3ccc(O)cc3)C2)nc1Cl (stereo not drawn) [Example 6.15, 3-[(3,5-Diamino-6-chloro-pyrazine-2-carbonyl)-amino]-1,1-bis-[3-(4-hydroxy-phenyl)propyl]-piperidinium trifluoroacetate] | 0.013

Same assay, conditions: Ussing chamber, mouse kidney M-1 cells, short circuit current, compound added to the apical solution; read-out: IC50

IC50 [µM] | Structure (SMILES)
0.072 | NC(=O)COc1ccc(CCC[N+]2(CCCc3ccc(OCC(N)=O)cc3)CCCC(NC(=O)c3nc(Cl)c(N)nc3N)C2)cc1 (stereo not drawn) [Example 6.4]
0.05 | CN(C)CCNC(=O)COc1ccc(CCC[N+]2(CCCc3ccc(OCC(=O)NCCN(C)C)cc3)CCCC(NC(=O)c3nc(Cl)c(N)nc3N)C2)cc1 (stereo not drawn) [Example 6.5]
0.068 | C[N+](C)(C)CCNC(=O)COc1ccc(CCC[N+]2(CCCc3ccc(OCC(=O)NCC[N+](C)(C)C)cc3)CCCC(NC(=O)c3nc(Cl)c(N)nc3N)C2)cc1 (stereo not drawn) [Example 6.6]
0.031 | CN(C)CCCNC(=O)COc1ccc(CCC[N+]2(CCCc3ccc(OCC(=O)NCCCN(C)C)cc3)CCCC(NC(=O)c3nc(Cl)c(N)nc3N)C2)cc1 (stereo not drawn) [Example 6.7]
0.065 | CN(C)CCN(C)C(=O)COc1ccc(CCC[N+]2(CCCc3ccc(OCC(=O)N(C)CCN(C)C)cc3)CCCC(NC(=O)c3nc(Cl)c(N)nc3N)C2)cc1 (stereo not drawn) [Example 6.9]
0.068 | C[N+](C)(C)CCNC(=O)COc1ccc(CCC[N+]2(CCCc3ccc(OCC(=O)NCC[N+](C)(C)C)cc3)CCC[C@H](NC(=O)c3nc(Cl)c(N)nc3N)C2)cc1 [Example 6.10]
0.045 | COC(=O)COc1ccc(CCC[N+]2(CCCc3ccc(OCC(=O)OC)cc3)CCC[C@H](NC(=O)c3nc(Cl)c(N)nc3N)C2)cc1 [Example 6.11]
0.134 | CN(C)C(=O)COc1ccc(CCC[N+]2(CCCc3ccc(OCC(=O)N(C)C)cc3)CCC[C@H](NC(=O)c3nc(Cl)c(N)nc3N)C2)cc1 [Example 6.12]
0.045 | CN(C)CCNC(=O)COc1ccc(CCC[N+]2(CCCc3ccc(OCC(=O)NCCN(C)C)cc3)CCC[C@H](NC(=O)c3nc(Cl)c(N)nc3N)C2)cc1 [Example 6.14]
0.013 | Nc1nc(N)c(C(=O)N[C@H]2CCC[N+](CCCc3ccc(OCC(=O)NCCCO)cc3)(CCCc3ccc(OCC(=O)NCCCO)cc3)C2)nc1Cl [Example 6.18]
0.03 | Nc1nc(N)c(C(=O)N[C@H]2CCC[N+](CCCc3ccc(OCC(=O)NCC(O)CO)cc3)(CCCc3ccc(OCC(=O)NCC(O)CO)cc3)C2)nc1Cl (stereo partly drawn) [Example 6.19]
0.046 | Nc1nc(N)c(C(=O)N[C@H]2CCC[N+](CCCc3ccc(OCC(=O)NC(CO)CO)cc3)(CCCc3ccc(OCC(=O)NC(CO)CO)cc3)C2)nc1Cl [Example 6.20]
0.014 | Nc1nc(N)c(C(=O)N[C@H]2CCC[N+](CCCc3ccc(OCC(=O)NCCCCO)cc3)(CCCc3ccc(OCC(=O)NCCCCO)cc3)C2)nc1Cl [Example 6.25]

Further lines, the molecule ahead of its results:

Structure (SMILES) | IC50 [µM]
COC(=O)CCNC(=O)c1ccc(CCC[N+]2(CCCc3ccc(OC)cc3)CCCC(NC(=O)c3nc(Cl)c(N)nc3N)C2)cc1 (stereo not drawn) [Example 5.8] | 0.024
CN(C)CCCN(C)C(=O)COc1ccc(CCC[N+]2(CCCc3ccc(OCC(=O)N(C)CCCN(C)C)cc3)CCCC(NC(=O)c3nc(Cl)c(N)nc3N)C2)cc1 (stereo not drawn) [Example 6.8] | 0.041
CN1CCC(NC(=O)COc2ccc(CCC[N+]3(CCCc4ccc(OCC(=O)NC5CCN(C)CC5)cc4)CCC[C@H](NC(=O)c4nc(Cl)c(N)nc4N)C3)cc2)CC1 [Example 6.13] | 0.015
COCCN(C)C(=O)COc1ccc(CCC[N+]2(CCCc3ccc(OCC(=O)N(C)CCOC)cc3)CCC[C@H](NC(=O)c3nc(Cl)c(N)nc3N)C2)cc1 [Example 6.16] | 0.042
CN(Cc1ccncc1)C(=O)COc1ccc(CCC[N+]2(CCCc3ccc(OCC(=O)N(C)Cc4ccncc4)cc3)CCC[C@H](NC(=O)c3nc(Cl)c(N)nc3N)C2)cc1 [Example 6.17] | 0.021
COCCN(CCOC)C(=O)COc1ccc(CCC[N+]2(CCCc3ccc(OCC(=O)N(CCOC)CCOC)cc3)CCC[C@H](NC(=O)c3nc(Cl)c(N)nc3N)C2)cc1 [Example 6.21] | 0.023
CN(Cc1ccccn1)C(=O)COc1ccc(CCC[N+]2(CCCc3ccc(OCC(=O)N(C)Cc4ccccn4)cc3)CCC[C@H](NC(=O)c3nc(Cl)c(N)nc3N)C2)cc1 [Example 6.22] | 0.018
Nc1nc(N)c(C(=O)N[C@H]2CCC[N+](CCCc3ccc(OCC(=O)NC4CCS(=O)(=O)C4)cc3)(CCCc3ccc(OCC(=O)NC4CCS(=O)(=O)C4)cc3)C2)nc1Cl (stereo partly drawn) [Example 6.23] | 0.035
Nc1nc(N)c(C(=O)N[C@H]2CCC[N+](CCCc3ccc(OCC(=O)N4CCS(=O)(=O)CC4)cc3)(CCCc3ccc(OCC(=O)N4CCS(=O)(=O)CC4)cc3)C2)nc1Cl [Example 6.24] | 0.047

Same assay, conditions: Ussing chamber, mouse kidney M-1 cells, short circuit current; unit inferred; read-out: IC50

Structure (SMILES) | IC50 [µM]
COc1ccc(CCC[N+]2(CCCc3ccc(C(=O)NCCC(=O)O)cc3)CCCC(NC(=O)c3nc(Cl)c(N)nc3N)C2)cc1 (stereo not drawn) [Example 5.10, 1-{3-[4-(Carboxyethyl-carbamoyl)-phenyl]-propyl}-3-[(3,5-diamino-6-chloro-pyrazine-2-carbonyl)-amino]-1-[3-(4-methoxy-phenyl)-propyl]-piperidinium chloride] | 0.15
Nc1nc(N)c(C(=O)NC2CCC[N+](CCCc3ccc(OCC(=O)NCCOCCOCCO)cc3)(CCCc3ccc(OCC(=O)NCCOCCOCCO)cc3)C2)nc1Cl (stereo not drawn) [Example 6.3, 3-[(3,5-Diamino-6-chloro-pyrazine-2-carbonyl)-amino]-1,1-bis-{3-[4-({2-[2-(2-hydroxyethoxy)-ethoxy]-ethylcarbamoyl}-methoxy)-phenyl]-propyl}-piperidinium trifluoroacetate] | 0.103

Same assay, conditions: Ussing chamber, mouse kidney M-1 cells, short circuit current; value printed in the example text with μM; read-out: IC50

Structure (SMILES) | IC50 [µM]
COC(=O)COc1ccc(CCC[N+]2(CCCc3ccc(OCC(=O)OC)cc3)CCCC(NC(=O)c3nc(Cl)c(N)nc3N)C2)cc1 (stereo not drawn) [Example 6, 3-[(3,5-Diamino-6-chloro-pyrazine-2-carbonyl)-amino]-1,1-bis-[3-(4-methoxycarbonylmethoxy-phenyl)-propyl]-piperidinium trifluoroacetate] | 0.02
Nc1nc(N)c(C(=O)NC2CCC[N+](CCCc3ccc(OCC(=O)O)cc3)(CCCc3ccc(OCC(=O)O)cc3)C2)nc1Cl (stereo not drawn) [Example 6.1, 1,1-Bis-[3-(4-carboxymethoxy-phenyl)-propyl]-3-[(3,5-diamino-6-chloro-pyrazine-2-carbonyl)-amino]-piperidinium chloride] | > 1
